Series [1] deals with Mycobacterium smegmatis EgtD (Mycolicibacterium smegmatis, UniProt A0R5M8). The note with it: isothermal calorimetry, previously determined; cited from earlier work.
The test system of series [2] is N[C@@H](Cc1c[nH]cn1)C(=O)O. In words: purified protein, by the assay type. The note with it: pH 8.0; 25.0 °C.
The target of the next series is HpMTAN (Helicobacter pylori, UniProt Q9ZMY2). The note with it: previously characterized; cited from earlier work.
A further series has as its target MTAN-D198N (Helicobacter pylori, UniProt Q9ZMY2, D198N). The note with it: for affinity to MTAN-D198N / displacement of AdoHcy-TAMRA: displacement curves, FIG. 10B.
Series [3] concerns the target T1, calf intestinal alkaline phosphatase (CIAP) (Bos taurus, UniProt P19111). To be noted: read-out: Km of ATP for CIAP; competitive FP assay, 0.25 U/mL CIAP.
Procedure: (§1) Calf Intestinal Alkaline Phosphatase (CIAP) was obtained from New England Biolabs. […] Reactions were initiated by adding ATP at varying concentrations ranging from 0.1 to 20 μM. Due to the ability of ATP to act as an inhibitor of CIAP at high concentrations, steady-state analysis of the resulting data was fitted to a substrate-inhibition equation in Equation 8, below, using Prism 7.
The target of series [4] is T1, calf intestinal alkaline phosphatase (CIAP). In words: biochemical.
Procedure: as §1
The next series deals with CIAP (Bos taurus, UniProt P19111). To be noted: molybdenum blue-based assay, previous work, cited from earlier work.
Chain of CIAP (P19111 20-506): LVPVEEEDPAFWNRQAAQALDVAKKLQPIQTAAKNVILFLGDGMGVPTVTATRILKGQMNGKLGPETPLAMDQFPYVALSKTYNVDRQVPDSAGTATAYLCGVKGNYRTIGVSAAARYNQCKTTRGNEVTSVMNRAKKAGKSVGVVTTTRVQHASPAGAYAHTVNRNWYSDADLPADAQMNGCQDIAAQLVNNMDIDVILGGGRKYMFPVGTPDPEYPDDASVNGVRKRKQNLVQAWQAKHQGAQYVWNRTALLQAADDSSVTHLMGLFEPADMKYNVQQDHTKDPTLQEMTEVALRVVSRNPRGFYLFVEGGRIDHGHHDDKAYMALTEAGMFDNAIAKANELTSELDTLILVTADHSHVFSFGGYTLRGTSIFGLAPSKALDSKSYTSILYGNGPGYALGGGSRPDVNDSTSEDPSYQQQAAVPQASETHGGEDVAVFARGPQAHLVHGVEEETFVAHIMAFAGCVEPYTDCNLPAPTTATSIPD

Chain of MTAN-D198N (Q9ZMY2 whole entry D198N): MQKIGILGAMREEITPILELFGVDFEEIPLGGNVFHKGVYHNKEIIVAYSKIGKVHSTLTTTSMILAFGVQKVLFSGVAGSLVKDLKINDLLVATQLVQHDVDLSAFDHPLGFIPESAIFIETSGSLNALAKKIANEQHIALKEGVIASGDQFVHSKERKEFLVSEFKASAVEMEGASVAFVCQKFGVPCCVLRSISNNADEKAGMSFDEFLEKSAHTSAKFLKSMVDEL
T1 sequence (P19111 20-506): as the sequence (P19111 20-506) above
Chain of Mycobacterium smegmatis EgtD (A0R5M8 whole entry): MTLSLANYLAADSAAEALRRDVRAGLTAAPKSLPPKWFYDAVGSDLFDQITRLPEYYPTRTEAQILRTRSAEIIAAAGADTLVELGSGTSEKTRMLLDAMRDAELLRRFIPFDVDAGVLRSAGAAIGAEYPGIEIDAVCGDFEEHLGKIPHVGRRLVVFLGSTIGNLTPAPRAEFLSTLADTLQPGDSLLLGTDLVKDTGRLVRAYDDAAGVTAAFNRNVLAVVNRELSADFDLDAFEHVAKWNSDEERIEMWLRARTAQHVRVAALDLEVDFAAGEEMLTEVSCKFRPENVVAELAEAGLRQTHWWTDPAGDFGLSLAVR
Chain of HpMTAN (Q9ZMY2 whole entry): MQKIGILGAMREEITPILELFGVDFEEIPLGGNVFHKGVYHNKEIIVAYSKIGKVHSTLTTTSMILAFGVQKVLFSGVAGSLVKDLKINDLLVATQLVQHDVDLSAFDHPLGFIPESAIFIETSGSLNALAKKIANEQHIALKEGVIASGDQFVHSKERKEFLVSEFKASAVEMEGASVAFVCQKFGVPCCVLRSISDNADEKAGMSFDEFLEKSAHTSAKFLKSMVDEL

With `C[S+](CC[C@H](N)C(=O)O)C[C@H]1O[C@@H](n2cnc3c(N)ncnc32)[C@H](O)[C@@H]1O` (stereo partly drawn) [AdoMet, S-adenosyl methionine], the Kd in series [1] was 270 ± 20 µM.
On to “EgtD (Mycobacterium tuberculosis CDC1551)”, for which the Km in series [2] stood at 330 ± 35 µM.
Regarding `Nc1ncnc2c1ncn2[C@@H]1O[C@H](CSCC[C@H](N)C(=O)O)[C@@H](O)[C@H]1O` [AdoHcy, S-adenosylhomocysteine], the “affinity with HpMTAN” value on HpMTAN was “low p M affinity”. The “limit of detection, amount” value at MTAN-D198N (50 μL reactions) is given as “about 0.3 pmol”.
Take `Nc1ncnc2c1ncn2[C@@H]1O[C@H](COP(=O)(O)OP(=O)(O)O)[C@@H](O)[C@H]1O` [ADP, adenosine diphosphate]: the “affinity to MTAN-D198N / displacement of AdoHcy-TAMRA” value (shortened to “affinity to MTAN-D198N / displacement”) on MTAN-D198N is given as “M affinity”.
`Nc1ncnc2c1ncn2[C@@H]1O[C@H](COP(=O)(O)OP(=O)(O)OP(=O)(O)O)[C@@H](O)[C@H]1O` [ATP, adenosine triphosphate]: the figures for the Km (in series [3]; on CIAP (read-out: Km of ATP for CIAP)) were 0.9 ± 0.2 µM and 20.5 µM, respectively. On MTAN-D198N, the “affinity to MTAN-D198N / displacement” value is on record as “unable to displace AdoHcy-TAMRA”. For the same compound, the Ki is 7.6 ± 1.8 µM in series [4] and 19 µM at CIAP (read-out: Ki for substrate inhibition of ATP (CIAP)).
Regarding `N[C@@H](Cc1c[nH]cn1)C(=O)O` [L-histidine], the Kd in series [1] was 290 ± 14 µM.
As to `Nc1ncnc2c1ncn2[C@@H]1O[C@H](COP(=O)(O)O)[C@@H](O)[C@H]1O` [AMP, adenosine monophosphate], the “affinity to MTAN-D198N / displacement” value on MTAN-D198N was “M affinity”.

The values are drawn from patent US12018299B2, “Methods and kits for quantifying adenosine-containing molecules” (priority 2017, dated 2024).
